For data set [1], the target named is T1, Lysine-specific histone demethylase 1A (Homo sapiens, UniProt O60341). Put plainly: Inhibition of LSD1 (unknown origin) by Spectra Max Paradigm Microplate Reader analysis.
The test system of another data set is MDA-MB-231. In words: Antiproliferative activity against human MDA-MB-231 cells assessed as reduction in cell viability after 24 hrs by MTT assay. Format: functional, cell-based. The following applies: MDA-MB-231, 24 h. A general note: Tetrazolium assays rely on reduction of a dye to a coloured formazan, in cell work by metabolically active cells.
Data set [2] has as its target T1, Lysine-specific histone demethylase 1A. In words: Inhibition of recombinant LSD1 (unknown origin) expressed in Escherichia coli BL21 using H3K4me2 as substrate preincubated for 10 mins followed by substrate addition and measured after 30 mins by fluorescence based analysis.
The next data set relates to MGC-803. Put plainly: Antiproliferative activity against human MGC-803 cells assessed as reduction in cell viability after 72 hrs by MTT assay. Format: functional, cell-based. The following applies: MGC-803, 72 h.
The target of data set [3] is T1, Lysine-specific histone demethylase 1A. Put plainly: Inhibition of recombinant LSD1 (unknown origin) using H3K4me2 as a substrate measured after 0.5 hrs by fluorescence based analysis.
The nature of data set [4]: Cytotoxicity against human GES1 cells assessed as cell viability measured after 72 hrs by MTT assay. Format: toxicity, cell-based.
Another data set relates to BGC-823. In words: Antiproliferative activity against human BGC-823 cells assessed as reduction in cell viability incubated for 5 days by MTS assay. Format: functional, cell-based. The following applies: BGC-823, 120 h.

SMILES strings stand for the structures.

For orientation: IC50 means the concentration at which inhibition is half-maximal. In the case of `O=C(/C=C/c1ccc(O)c2c1[C@H](C(=O)O[C@H](Cc1ccc(O)c(O)c1)C(=O)O)[C@@H](c1ccc(O)c(O)c1)O2)O[C@H](Cc1ccc(O)c(O)c1)C(=O)O`, the values for the IC50 (in data set [1]; in the data set with MDA-MB-231) were 0.11 µM and 55 µM, respectively. Turning to `COc1ccc2cc3[n+](cc2c1OC)CCc1cc2c(cc1-3)OCO2` [BERBERINE], in data set [2], the half-maximal inhibitory concentration (IC50) is 6.97 µM. Consider `COc1ccc(-c2coc3cc(O)cc(O)c3c2=O)cc1` [BIOCHANIN], for which the IC50 in the data set with MGC-803 turned out to be 6.77 µM; in data set [3], 2.95 µM. The IC50 at 72 h in data set [4] was over 32 µM.

Consider `COc1cc(CNC(=O)CCCC/C=C/C(C)C)ccc1O` [CAPSAICIN], for which, in the data set with BGC-823, the IC50 was 4.66 µM. On to `COc1cc2c(cc1O)-c1cc3ccc(OC)c(OC)c3c[n+]1CC2` [COLUMBAMINE], for which the IC50 in data set [2] amounted to 0.47 µM. Regarding `C[C@H]1COC2=C1C(=O)C(=O)c1c2ccc2c1CCCC2(C)C` [CRYPTOTANSHINONE], half-maximal inhibition in data set [1] (IC50) required 9.02 µM.

`Cc1cccc2c3c(ccc12)C1=C(C(=O)C3=O)[C@@H](C)CO1` [DIHYDROTANSHINONE I] displayed an IC50 in data set [1] of 15.8 µM.

On to `COc1cc2c(cc1O)CC[n+]1cc3c(OC)c(OC)ccc3cc1-2` [JATRORRHIZINE], for which, in data set [2], the IC50 came out at 1.55 µM.

In the case of `COc1cc2c(cc1OC)-c1cc3ccc(OC)c(OC)c3c[n+]1CC2` [PALMITINE], in data set [2], the IC50 worked out at 12.2 µM. Regarding `O=C(/C=C/c1ccc(O)c(O)c1)O[C@H](Cc1ccc(O)c(O)c1)C(=O)O` [ROSMARINIC ACID], in data set [1], the IC50 worked out at 20.9 µM. The same measure, in the same setting: the same measure for `Cc1coc2c1C(=O)C(=O)c1c-2ccc2c(C)cccc12` [TANSHINONE I]: 16.4 µM.

Source of the values: ChEMBL document CHEMBL5096159, “Annual review of LSD1/KDM1A inhibitors in 2020” (Eur J Med Chem, 2021).
